Among the data in BindingDB's records for doi:10.1016/j.ejmech.2008.03.019 (Institute of Pharmacology of The Polish Academy of Sciences, 2008) are Ki values, retold here.

This assay addresses T1, 5-hydroxytryptamine receptor 1A (Rattus norvegicus, UniProt P19327).
T1 sequence (P19327 whole entry): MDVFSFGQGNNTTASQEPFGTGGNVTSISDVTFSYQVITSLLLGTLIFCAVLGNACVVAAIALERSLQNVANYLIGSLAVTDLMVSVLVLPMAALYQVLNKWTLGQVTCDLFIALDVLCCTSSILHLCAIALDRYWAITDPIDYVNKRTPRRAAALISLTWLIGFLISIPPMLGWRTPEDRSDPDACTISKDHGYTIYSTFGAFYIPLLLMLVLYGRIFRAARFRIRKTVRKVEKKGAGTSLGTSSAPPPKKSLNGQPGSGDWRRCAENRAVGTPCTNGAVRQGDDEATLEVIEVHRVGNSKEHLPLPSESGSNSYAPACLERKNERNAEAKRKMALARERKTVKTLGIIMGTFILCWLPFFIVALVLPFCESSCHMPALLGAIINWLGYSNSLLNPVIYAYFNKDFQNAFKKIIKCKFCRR
As to the kind of experiment: Displacement of [3H]8-OH-DPAT from 5HT1A receptor in rat hippocampal membranes. On the technique in general: In a radioligand displacement assay an active substance lowers the binding of a labelled ligand.

Consider `CC1CC2(C)CC(=O)C1C1C(=O)N(OCCCN3CCN(c4ccccc4F)CC3)C(=O)C12` (stereo unspecified) [4-{3-[4-(2-Fluorophenyl)piperazin-1-yl]propoxy}-1,11-dimethyl-4-azatricyclo[5.2.2.0(2,6)]undecane-3,5,8-trione], for which the Ki (commonly the dissociation constant of the complex between target and ligand, obtained from inhibition or displacement) stood at 331 nM.
